Assay results published in ChEMBL document CHEMBL1201862, “PubChem BioAssay data set” (2004).
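Tested at 5 concentrations; 48 h exposure; 96-well plates; endpoints linearly interpolated, else capped at highest concentration. At the GI50, growth is halved.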 The source made the active and inactive calls. Rule as the data show it: active = GI50 up to about 1.1 µM and inactive = higher.

Experiments:
Experiment in all cases: NCI tumour cell line growth inhibition, 48 h
NCI-H522 = system: NCI-H522
SW-620 = system: SW-620
SK-MEL-5 = system: SK-MEL-5
SK-MEL-28 = system: SK-MEL-28
HCC 2998 = system: HCC 2998
PC-3 = system: PC-3
HCT-116 = system: HCT-116
SF-539 = system: SF-539
HOP-92 = system: HOP-92
MDA-N = system: MDA-N
T47D = system: T47D
DU-145 = system: DU-145
NCI-H226 = system: NCI-H226
M14 = system: M14
Malme-3M = system: Malme-3M
UO-31 = system: UO-31
SN12C = system: SN12C
SF-268 = system: SF-268
UACC-257 = system: UACC-257
SR = system: SR
OVCAR-3 = system: OVCAR-3
A498 = system: A498
SNB-75 = system: SNB-75
OVCAR-5 = system: OVCAR-5
LOX IMVI = system: LOX IMVI
OVCAR-8 = system: OVCAR-8
MDA-MB-231 = system: MDA-MB-231
RXF 393 = system: RXF 393
NCI-H460 = system: NCI-H460
BT-549 = system: BT-549
HOP-62 = system: HOP-62
HCT-15 = system: HCT-15
OVCAR-4 = system: OVCAR-4
Hs-578T = system: Hs-578T
MDA-MB-435 = system: MDA-MB-435
CAKI-1 = system: CAKI-1
A549 = system: A549
RPMI-8226 = system: RPMI-8226
IGROV-1 = system: IGROV-1
NCI-H23 = system: NCI-H23
MOLT-4 = system: MOLT-4
MCF7 = system: MCF7
NCI/ADR-RES = system: NCI/ADR-RES
SK-OV-3 = system: SK-OV-3
KM12 = system: KM12
EKVX = system: EKVX
HT-29 = system: HT-29
SNB-19 = system: SNB-19
786-0 = system: 786-0
TK-10 = system: TK-10
CCRF-CEM = system: CCRF-CEM
HL-60 = system: HL-60
U-251 = system: U-251
K562 = system: K562
ACHN = system: ACHN
SF-295 = system: SF-295
COLO 205 = system: COLO 205
SK-MEL-2 = system: SK-MEL-2

In the case of `NS(=O)(=O)c1ccc(/N=N/c2ccc(O)cc2)cc1`, the GI50 (NCI-H522) is reported as 33.7 µM (inactive), the GI50 (SW-620) is reported as 44.5 µM (inactive) and the GI50 (SK-MEL-5) is reported as 28.8 µM (inactive). The GI50 (SK-MEL-28) was 21.4 µM (inactive), the GI50 (HCC 2998) was > 100 µM (inactive) and the GI50 (PC-3) was 66.7 µM (inactive). The GI50 (HCT-116) was 37.3 µM (inactive), the GI50 (SF-539) was 31.9 µM (inactive) and the GI50 (HOP-92) was 75.3 µM (inactive). The GI50 (MDA-N) was 61.9 µM (inactive), the GI50 (T47D) was 31.3 µM (inactive) and the GI50 (DU-145) was 49.7 µM (inactive). The GI50 (NCI-H226) was 19.3 µM (inactive), the GI50 (M14) was 33.2 µM (inactive) and the GI50 (Malme-3M) was > 100 µM (inactive). For the same molecule, the GI50 (UO-31) was 12.6 µM (inactive), the GI50 (SN12C) was 64 µM (inactive) and the GI50 (SF-268) was 53.6 µM (inactive). For the same molecule, the GI50 (UACC-257) was 51.2 µM (inactive), the GI50 (SR) was 7.13 µM (inactive) and the GI50 (OVCAR-3) was 66.4 µM (inactive). For the same molecule, the GI50 (A498) was > 100 µM (inactive), the GI50 (SNB-75) was 19.1 µM (inactive) and the GI50 (OVCAR-5) was > 100 µM (inactive). For the same molecule, the GI50 (LOX IMVI) was 6.61 µM (inactive), the GI50 (OVCAR-8) was 45.3 µM (inactive) and the GI50 (MDA-MB-231) was 64.3 µM (inactive). For the same molecule, the GI50 (RXF 393) was > 100 µM (inactive), the GI50 (NCI-H460) was 31.1 µM (inactive) and the GI50 (BT-549) was 10.5 µM (inactive). The GI50 (HOP-62) was 92 µM (inactive), the GI50 (HCT-15) was 59.2 µM and the GI50 (OVCAR-4) was 43.4 µM (inactive). For the same molecule, the GI50 (Hs-578T) was 61.8 µM (inactive), the GI50 (MDA-MB-435) was 11.3 µM (inactive) and the GI50 (CAKI-1) was 20.9 µM (inactive). The GI50 (A549) was 28.3 µM (inactive), the GI50 (RPMI-8226) was 26.5 µM (inactive) and the GI50 (IGROV-1) was 70 µM (inactive). For the same molecule, the GI50 (NCI-H23) was 55.6 µM (inactive), the GI50 (MOLT-4) was 4.25 µM (inactive) and the GI50 (MCF7) was 39.4 µM (inactive). For the same molecule, the GI50 (NCI/ADR-RES) was 26.8 µM (inactive), the GI50 (SK-OV-3) was > 100 µM (inactive) and the GI50 (KM12) was 18.6 µM (inactive). The GI50 (EKVX) was 20.7 µM (inactive), the GI50 (HT-29) was 50.2 µM (inactive) and the GI50 (SNB-19) was 83.2 µM (inactive). The GI50 (786-0) was > 100 µM (inactive), the GI50 (TK-10) was > 100 µM (inactive) and the GI50 (CCRF-CEM) was 62.1 µM (inactive). For the same molecule, the GI50 (HL-60) was 30.1 µM (inactive), the GI50 (U-251) was 61 µM (inactive) and the GI50 (K562) was 7.46 µM (inactive). For the same molecule, the GI50 (ACHN) was 31.8 µM (inactive), the GI50 (SF-295) was 29.9 µM (inactive) and the GI50 (COLO 205) was 46.3 µM (inactive). The GI50 (SK-MEL-2) was 32.7 µM (inactive).
